Experimental data from patent publication US20240217978A1 (CHONG KUN DANG PHARMACEUTICAL CORP., priority 2021, published 2024).

biological target: human adenosine A2a receptor (Homo sapiens (Human), UniProt P29274); test: A2a receptor binding affinity, [3H]-NECA radioligand binding test; conditions: [3H]-NECA 37 nM; membrane from HEK-293 cells transfected with human adenosine A2a receptor
Method in brief: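 IC50 values (μM) come from displacement of [3H]-NECA, used at 37 nM final, on human A2a receptor membranes from transfected HEK-293 cells. Incubation lasted one hour at room temperature in Tris/MgCl2/EDTA buffer, pH 7.4; filter-bound radioactivity was counted by scintillation.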

Sequence of human adenosine A2a receptor (P29274 whole entry): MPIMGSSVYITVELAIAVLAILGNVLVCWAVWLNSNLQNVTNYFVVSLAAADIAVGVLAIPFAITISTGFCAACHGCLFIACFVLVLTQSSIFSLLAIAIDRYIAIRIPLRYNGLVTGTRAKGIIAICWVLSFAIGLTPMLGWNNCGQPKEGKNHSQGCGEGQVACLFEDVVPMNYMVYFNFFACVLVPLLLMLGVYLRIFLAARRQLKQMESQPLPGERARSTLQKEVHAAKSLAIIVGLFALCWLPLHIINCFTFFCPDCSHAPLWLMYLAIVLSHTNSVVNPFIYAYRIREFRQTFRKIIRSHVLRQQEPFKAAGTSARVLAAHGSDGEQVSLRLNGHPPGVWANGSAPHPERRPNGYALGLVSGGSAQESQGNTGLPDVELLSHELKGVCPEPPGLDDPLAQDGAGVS

SMILES	IC50 [nM]
C[C@H](Nc1nc(N)n2nc(-c3ccco3)nc2n1)C(=O)N1CCC(C2CCN(CC(F)F)CC2)CC1 [Example 334, (S)-2-((7-amino-2-(furan-2-yl)-[1,2,4]triazolo[1,5-a][1,3,5]triazin-5-yl)amino)-1-(1′-(2,2-difluoroethyl)-[4,4′-bipiperidin]-1-yl)propan-1-one]	13
CC[C@H](Nc1nc(N)n2nc(-c3ccco3)nc2n1)C(=O)N1CCN(CC(C)(C)F)CC1 [Example 338, (S)-2-((7-amino-2-(furan-2-yl)-[1,2,4]triazolo[1,5-a][1,3,5]triazin-5-yl)amino)-1-(4-(2-fluoro-2-methylpropyl)piperazin-1-yl)butan-1-one]	14
CC(C)(F)CN1CCN(C(=O)[C@@H](Nc2nc(N)n3nc(-c4ccco4)nc3n2)C2CC2)CC1 [Example 339, (S)-2-((7-amino-2-(furan-2-yl)-[1,2,4]triazolo[1,5-a][1,3,5]triazin-5-yl)amino)-2-cyclopropyl-1-(4-(2-fluoro-2-methylpropyl)piperazin-1-yl)ethan-1-one]	18
C[C@H](Nc1nc(N)c2nc(-c3ccco3)sc2n1)C(=O)N1CCN(C(=O)CC(C)(C)O)CC1 [Example 340, 1-(4-((7-amino-2-(furan-2-yl)thiazolo[5,4-d]pyrimidin-5-yl)-L-alanyl)piperazin-1-yl)-3-hydroxy-3-methylbutan-1-one]	74
Nc1nc(N2CCC[C@H]2C(=O)N2CCN(CC(F)F)CC23CC3)nc2nc(-c3ccco3)nn12 [Example 341, (S)-(1-(7-amino-2-(furan-2-yl)-[1,2,4]triazolo[1,5-a][1,3,5]triazin-5-yl)pyrrolidin-2-yl)(7-(2,2-difluoroethyl)-4,7-diazaspiro[2.5]octan-4-yl)methanone]	28
Nc1nc(N2CCC[C@H]2C(=O)N2CCN(C3CCCCC3)CC23CC3)nc2nc(-c3ccco3)nn12 [Example 344, (S)-(1-(7-amino-2-(furan-2-yl)-[1,2,4]triazolo[1,5-a][1,3,5]triazin-5-yl)pyrrolidin-2-yl)(7-cyclohexyl-4,7-diazaspiro[2.5]octan-4-yl)methanone]	16
Nc1nc(N2CCC[C@H]2C(=O)N2CC3(CN(CC(F)(F)F)C3)C2)nc2nc(-c3ccco3)nn12 [Example 345, (S)-(1-(7-amino-2-(furan-2-yl)-[1,2,4]triazolo[1,5-a][1,3,5]triazin-5-yl)pyrrolidin-2-yl)(6-(2,2,2-trifluoroethyl)-2,6-diazaspiro[3.3]heptan-2-yl)methanone]	13
CCC(O)(CC)CN1CCN(C(=O)[C@@H]2CCN2c2nc(N)n3nc(-c4ccco4)nc3n2)CC1 [Example 347, (S)-(1-(7-amino-2-(furan-2-yl)-[1,2,4]triazolo[1,5-a][1,3,5]triazin-5-yl)azetidin-2-yl)(4-(2-ethyl-2-hydroxybutyl)piperazin-1-yl)methanone]	17
C[C@H](Nc1nc(N)n2nc(-c3ccco3)nc2n1)C(=O)N1CCN(CC(C)(C)O)CC1 [Example 349, (S)-2-((7-amino-2-(furan-2-yl)-[1,2,4]triazolo[1,5-a][1,3,5]triazin-5-yl)amino)-1-(4-(2-hydroxy-2-methylpropyl)piperazin-1-yl)propan-1-one]	12.2
CC(C)[C@H](Nc1nc(N)n2nc(-c3ccco3)nc2n1)C(=O)N1CCN(CC(C)(C)O)CC1 [Example 351, (S)-2-((7-amino-2-(furan-2-yl)-[1,2,4]triazolo[1,5-a][1,3,5]triazin-5-yl)amino)-1-(4-(2-hydroxy-2-methylpropyl)piperazin-1-yl)-3-methylbutan-1-one]	17
Nc1nc(N[C@H](C(=O)N2CCN(CC(F)F)CC2)C2CC2)nc2nc(-c3ccco3)nn12 [Example 354, (S)-2-((7-amino-2-(furan-2-yl)-[1,2,4]triazolo[1,5-a][1,3,5]triazin-5-yl)amino)-2-cyclopropyl-1-(4-(2,2-difluoroethyl)piperazin-1-yl)ethan-1-one]	22
CC(C)[C@H](Nc1nc(N)n2nc(-c3ccco3)nc2n1)C(=O)N1CCN(CC(F)F)CC1 [Example 355, (S)-2-((7-amino-2-(furan-2-yl)-[1,2,4]triazolo[1,5-a][1,3,5]triazin-5-yl)amino)-1-(4-(2,2-difluoroethyl)piperazin-1-yl)-3-methylbutan-1-one]	14
CC[C@H](Nc1nc(N)n2nc(-c3ccco3)nc2n1)C(=O)N1CCN(CC(C)(F)F)CC1 [Example 356, (S)-2-((7-amino-2-(furan-2-yl)-[1,2,4]triazolo[1,5-a][1,3,5]triazin-5-yl)amino)-1-(4-(2,2-difluoropropyl)piperazin-1-yl)butan-1-one]	10
CC[C@H](Nc1nc(N)n2nc(-c3ccco3)nc2n1)C(=O)N1CCN(CC(F)(F)C(F)F)CC1 [Example 358, (S)-2-((7-amino-2-(furan-2-yl)-[1,2,4]triazolo[1,5-a][1,3,5]triazin-5-yl)amino)-1-(4-(2,2,3,3-tetrafluoropropyl)piperazin-1-yl)butan-1-one]	10
CC(C)[C@H](Nc1nc(N)n2nc(-c3ccco3)nc2n1)C(=O)N1CCN(CC(C)(F)F)CC1 [Example 360, (S)-2-((7-amino-2-(furan-2-yl)-[1,2,4]triazolo[1,5-a][1,3,5]triazin-5-yl)amino)-1-(4-(2,2-difluoropropyl)piperazin-1-yl)-3-methylbutan-1-one]	10

The next compounds have a lower IC50 than those just listed; values first:

IC50 [nM]	SMILES
9	C[C@H](Nc1nc(N)n2nc(-c3ccco3)nc2n1)C(=O)N1CCC(C2CCN(CC(C)(C)O)CC2)CC1 [Example 333, (S)-2-((7-amino-2-(furan-2-yl)-[1,2,4]triazolo[1,5-a][1,3,5]triazin-5-yl)amino)-1-(1′-(2-hydroxy-2-methylpropyl)-[4,4′-bipiperidin]-1-yl)propan-1-one]
9	CN(CC(F)(F)F)C1CCN(C(=O)[C@@H]2CCCN2c2nc(N)n3nc(-c4ccco4)nc3n2)CC1 [Example 337, (S)-(1-(7-amino-2-(furan-2-yl)-[1,2,4]triazolo[1,5-a][1,3,5]triazin-5-yl)pyrrolidin-2-yl)(4-(methyl(2,2,2-trifluoroethyl)amino)piperidin-1-yl)methanone]
9	CC(F)(F)CN1CCN(C(=O)[C@@H]2CCCN2c2nc(N)n3nc(-c4ccco4)nc3n2)C2(CC2)C1 [Example 343, (S)-(1-(7-amino-2-(furan-2-yl)-[1,2,4]triazolo[1,5-a][1,3,5]triazin-5-yl)pyrrolidin-2-yl)(7-(2,2-difluoropropyl)-4,7-diazaspiro[2.5]octan-4-yl)methanone]
9	CC(C)(O)CN1CCN(C(=O)[C@@H]2CCN2c2nc(N)n3nc(-c4ccco4)nc3n2)CC1 [Example 350, (S)-(1-(7-amino-2-(furan-2-yl)-[1,2,4]triazolo[1,5-a][1,3,5]triazin-5-yl)azetidin-2-yl)(4-(2-hydroxy-2-methylpropyl)piperazin-1-yl)methanone]
9	CC(F)(F)CN1CCN(C(=O)[C@@H](Nc2nc(N)n3nc(-c4ccco4)nc3n2)C2CC2)CC1 [Example 357, (S)-2-((7-amino-2-(furan-2-yl)-[1,2,4]triazolo[1,5-a][1,3,5]triazin-5-yl)amino)-2-cyclopropyl-1-(4-(2,2-difluoropropyl)piperazin-1-yl)ethan-1-one]
9	CCCCN1CCN(C(=O)[C@@H]2CCCN2c2cc3nc(-c4ccco4)nn3c(N)n2)CC1 [Example 361, (S)-(1-(5-amino-2-(furan-2-yl)-[1,2,4]triazolo[1,5-c]pyrimidin-7-yl)pyrrolidin-2-yl)(4-butylpiperazin-1-yl)methanone]
8	Nc1nc(N2CCC[C@H]2C(=O)N2CCN(CC(F)(F)F)CC23CC3)nc2nc(-c3ccco3)nn12 [Example 342, (S)-(1-(7-amino-2-(furan-2-yl)-[1,2,4]triazolo[1,5-a][1,3,5]triazin-5-yl)pyrrolidin-2-yl)(7-(2,2,2-trifluoroethyl)-4,7-diazaspiro[2.5]octan-4-yl)methanone]
8	CC[C@H](Nc1nc(N)n2nc(-c3ccco3)nc2n1)C(=O)N1CCN(c2ncccn2)CC1 [Example 346, (S)-2-((7-amino-2-(furan-2-yl)-[1,2,4]triazolo[1,5-a][1,3,5]triazin-5-yl)amino)-1-(4-(pyrimidin-2-yl)piperazin-1-yl)butan-1-one]
8	Nc1nc(N2CCCN2C(=O)N2CCN(CC(F)(F)F)CC2)nc2nc(-c3ccco3)nn12 [Example 353, (2-(7-amino-2-(furan-2-yl)-[1,2,4]triazolo[1,5-a][1,3,5]triazin-5-yl)pyrazolidin-1-yl)(4-(2,2,2-trifluoroethyl)piperazin-1-yl)methanone]
6	CC(C)(F)CN1CCN(C(=O)[C@@H]2CCCN2c2cc3nc(-c4ccco4)nn3c(N)n2)CC1 [Example 352, (S)-(1-(5-amino-2-(furan-2-yl)-[1,2,4]triazolo[1,5-c]pyrimidin-7-yl)pyrrolidin-2-yl)(4-(2-fluoro-2-methylpropyl)piperazin-1-yl)methanone]
5	CCC(O)(CC)CN1CCN(C(=O)[C@@H](Nc2nc(N)n3nc(-c4ccco4)nc3n2)C(C)C)CC1 [Example 348, (S)-2-((7-amino-2-(furan-2-yl)-[1,2,4]triazolo[1,5-a][1,3,5]triazin-5-yl)amino)-1-(4-(2-ethyl-2-hydroxybutyl)piperazin-1-yl)-3-methylbutan-1-one]
5	Nc1nc(N[C@H](C(=O)N2CCN(CC(F)(F)C(F)F)CC2)C2CC2)nc2nc(-c3ccco3)nn12 [Example 359, (S)-2-((7-amino-2-(furan-2-yl)-[1,2,4]triazolo [1,5-a][1,3,5]triazin-5-yl)amino)-2-cyclopropyl-1-(4-(2,2,3,3-tetrafluoropropyl)piperazin-1-yl)ethan-1-one]
1	C[C@H](Nc1nc(N)n2nc(-c3ccco3)nc2n1)C(=O)N1CCC(C2CCN(CC(C)(F)F)CC2)CC1 [Example 335, (S)-2-((7-amino-2-(furan-2-yl)-[1,2,4]triazolo[1,5-a][1,3,5]triazin-5-yl)amino)-1-(1′-(2,2-difluoropropyl)-[4,4′-bipiperidin]-1-yl)propan-1-one]
